Source: paper PMC4122235 (Biochimica et biophysica acta, 2014)
Like-named read-outs stand apart in the source and are kept apart here.

How the values were obtained:
CacKam = CacKam (Catenulispora acidiphila, UniProt C7Q5P8); test: biochemical; format: binding
TcuKam = TcuKam (Thermomonospora curvata, UniProt D1A6K4); test: biochemical; format: binding
CarKam = test: isothermal titration calorimetry, single-site fit; format: binding, Candidatus Arthromitus sp. SFB-mouse-NYU; details: 25 °C, 20 mM Tris pH 7.5, 10 mM magnesium acetate, 250 mM NH4Cl, 10 % glycerol, 6 mM β-mercaptoethanol, no 30S subunit
(UniProt K2DC64) = test: biochemical

Row | SMILES | Kd (CacKam) | Kd (TcuKam) | Kd (CarKam; read-out: Kd (μM) / SAH) | Kd ((UniProt K2DC64)) | Kd (CarKam; read-out: Kd (μM) / SAM)
1 | Nc1ncnc2c1ncn2[C@@H]1O[C@H](CSCC[C@H](N)C(=O)O)[C@@H](O)[C@H]1O [SAH] | 2.7 µM | 1.9 µM | 4.1 µM | – | –
2 | C[S+](CC[C@H](N)C(=O)O)C[C@H]1O[C@@H](n2cnc3c(N)ncnc32)[C@H](O)[C@@H]1O (stereo partly shown) [SAM] | 44 µM | 13 µM | – | 75 µM | 24 µM
